Source: patent publication US20170218389A1, “METHODS AND COMPOSITIONS FOR STOMATA REGULATION, PLANT IMMUNITY, AND DROUGHT TOLERANCE” (priority 2016, published 2017)

T1: COI1 (Coronatine Insensitive 1) (Arabidopsis, UniProt O04197 1-592, limits assumed)
T1 construct: Expressed in Arabidopsis seedlings in the FAST assay; construct not described
T1 sequence (looked up): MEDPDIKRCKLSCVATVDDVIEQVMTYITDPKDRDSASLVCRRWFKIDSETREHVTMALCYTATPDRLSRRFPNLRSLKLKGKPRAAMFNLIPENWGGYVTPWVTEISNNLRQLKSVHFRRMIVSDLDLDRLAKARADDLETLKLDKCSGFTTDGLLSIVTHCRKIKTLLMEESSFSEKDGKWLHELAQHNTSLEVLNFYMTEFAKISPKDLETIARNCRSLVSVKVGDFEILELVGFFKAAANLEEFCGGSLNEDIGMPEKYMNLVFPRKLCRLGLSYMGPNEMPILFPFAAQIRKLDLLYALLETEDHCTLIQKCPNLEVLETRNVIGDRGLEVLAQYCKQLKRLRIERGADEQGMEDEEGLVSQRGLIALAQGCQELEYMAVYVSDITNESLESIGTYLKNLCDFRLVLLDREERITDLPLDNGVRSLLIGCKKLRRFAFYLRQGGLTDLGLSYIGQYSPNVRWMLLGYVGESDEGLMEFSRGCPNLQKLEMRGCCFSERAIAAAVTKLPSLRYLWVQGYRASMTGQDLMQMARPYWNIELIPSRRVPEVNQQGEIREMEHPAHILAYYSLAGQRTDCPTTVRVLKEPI


Key:
[1] = tested on: stomata of Arabidopsis epidermal peels; test: Stomatal aperture in epidermal peels of Col-0 and AtGCN4 overexpressor lines; assay type: cell-based; settings: both wild-type Col-0 and AtGCN4 overexpressor lines, after ABA treatment
Method: A representative histogram is depicted of stomatal aperture in Arabidopsis plant epidermal peels from wild-type Col-0 and GCN4-overexpressing (AtGCN4-OE6 and AtGCN4-OE16) lines measured 4 hours after treatment with MES buffer, COR, ABA, or COR+ABA.
Upon detection of PAMPs, stomata rapidly closes to prevent entry of the pathogen into apoplast (Melotto et al., 2006; Lee et al., 2013). […] Epidermal peels of AtGCN4 overexpressing lines were used to investigate whether stomata reopen after treatment with MES buffer (stomata opening buffer; control) or the host pathogen P. syringae pv. tomato DC3000. In wild-type Col-0, stomata reopened 3 hpi, while in the AtGCN4 overexpressor lines (AtGCN4-OE6 and AtGCN4-OE16), stomata remained closed even 4 hpi with P. syringae pv. tomato DC3000. Stomatal aperture was measured after ABA and coronatine treatments in order to investigate stomatal function in AtGCN4 overexpressor lines. ABA treatment induces stomatal closure in plants. After ABA treatment, the stomatal aperture size was reduced due to closing in both wild-type Col-0 and the AtGCN4 overexpressor lines.

AtNHR1A [2] = settings: 4 hrs of 100 μM ABA, cited from earlier work
AtNHR1A [3] = test: qRT-PCR of AtNHR1A expression in treated wild-type Col-0 plants; assay type: in vivo, Arabidopsis; settings: Col-0, syringe-infiltrated ABA 10 μM, 6 hpt, relative to 0 hr
Method: (§1) Total RNA was purified from Arabidopsis leaves infiltrated with water (mock control), nonhost pathogen P. syringae pv. tabaci (Psta), or host pathogen P. syringae pv. maculicola (Psm). Total RNA was extracted using TRIzol (Invitrogen, NT) and 2 treated or inoculated leaves were pooled to represent one biological replicate. Total RNA was treated with DNase I (Invitrogen, NY), and 1 μg RNA was used to generate cDNA using Superscript III reverse transcriptase (Invitrogen, NY) and oligo d(T)15-20 primers. The cDNA (1:20) was then used for qRT-PCR using Power SYBR Green PCR master mix (Applied Biosystems, Foster City, Calif., USA) with an ABI Prism 7900 HT sequence detection system (Applied Biosystems). Primers specific for AtUBQ5 were used to normalize small differences in template amounts. Average Cycle Threshold (CT) values calculated using Sequence Detection Systems (version 2.2.2; Applied Biosystems) from duplicate samples were used to determine the fold expression relative to controls.
(§2) The gene expression patterns of AtNHR1A and AtNHR1B were determined by quantitative RT-PCR (qRT-PCR) after treating wild-type Col-0 plants with ABA, PAMPs (Flg22 and LPS), host (P. syringae pv. maculicola) and nonhost (P. syringae pv. tabaci) bacterial pathogens. […]

AtNHR1B [4] = settings: both mesophyll cells and guard cells, 4 hrs of 100 μM ABA; cited from earlier work
[5] = tested on: stomata of Arabidopsis epidermal peels; test: Stomatal closure / aperture in epidermal peels of NHR1A lines; assay type: cell-based; settings: ABA 50 μM, flg22 20 μM
Method: FIG. 6A, FIG. 6B and FIG. 6C show ABA, PAMPs, host and nonhost bacterial pathogens induce AtNHR1A, AtNHR1B, and stomatal closure in an AtNHR1A-dependent manner. Histograms are depicted of AtNHR1A (FIG. 6A) and AtNHR1B (FIG. 6B) gene expression in Arabidopsis wild-type (Col-0) plants individually syringe-infiltrated with ABA (10 μM), Flg22 (20 μM), or LPS (100 ng), or flood-inoculated with the pathogens P. syringae pv. maculicola (Psm) and P. syringae pv. tabaci (Pst) at 1×10^4 cfu/mL. Bars indicate relative gene expression in comparison with the housekeeping gene UBQ5 and in relation to the 0 hr time-point. Different letters above bars indicate a statistically significant difference within a treatment (Student's t-test; p-value=0.05). Error bars represent the standard deviation of three biological replicates (three technical replicates for each biological replicate). Histograms are depicted quantifying stomatal aperture size from epidermal peels incubated with ABA (10 μM or 50 μM), Flg22 (20 μM), LPS (100 ng) and the nonhost pathogen Pst (1×10^6 cfu/mL), where aperture size was measured after 30 min for ABA, 1 hr for flg22 and 3 hrs for Pst (FIG. 6C). […]

AtNHR1B [6] = test: qRT-PCR of AtNHR1B expression in treated wild-type Col-0 plants; assay type: in vivo, Arabidopsis; settings: Col-0, 12 hpt; ABA 10 μM, Flg22 20 μM
Method: as §1, §2

[7] = target: T1, COI1 (Coronatine Insensitive 1); test: FAST (fast agro-mediated seedling transformation) assay in Arabidopsis Col-0 and nhr1a seedlings
Description: Several JAZ proteins, such as JAZ1, JAZ2, JAZ3, JAZ6, JAZ9 and JAZ10, have been known to directly interact with COI1 in Arabidopsis (Chini et al., 2009; Melotto et al., 2008; Thines et al., 2007; Yan et al., 2009; Zhou et al., 2013). As shown above, NHR1A directly interacts with JAZ1, JAZ3, JAZ4, JAZ5, JAZ9 and JAZ12. Without being limited by theory, the present inventors hypothesize that the function of JAZ9 can be modified by binding NHR1A, and this may affect COI1-mediated signaling for stomatal closure. The fast agro-mediated seedling transformation (FAST) assay was used in Col-0 and nhr1a to investigate whether NHR1A was required for JAZ9-COI1 interaction.

AtNHR1A [8] = test: GTPase activity of AtNHR1A (GTP hydrolysis, phosphate release); assay type: biochemical, Arabidopsis
Method: FIG. 12A, FIG. 12B and FIG. 12C show NHR1A has GTPase activity and interacts with JAZ9 in Arabidopsis. A representative histogram is depicted showing that nhr1a is less sensitive to JA than Col-0, where roots were measured 7 days after seeds of different Arabidopsis lines were grown in MS medium plates with or without 30 μM of MeJA (FIG. 12A). Data represents three independent experiments with at least 10 seedlings per line. Bars represent the mean±SD. Asterisks indicate statistical significance (Student's t-test; p-value <0.05). A representative scatter-plot and histogram are depicted showing that the GTPase activity of NHR1A is reduced by JAZ9 as measured by the rate of phosphate (Pi) release when NHR1A protein (1 μM) was pre-loaded with GTP (1 mM) and incubated without (FIG. 12B) or with 0.25-1 μM of JAZ9 (FIG. 12C). Data represents three independent experiments. Bars represent the mean±SE.
To further examine the role of AtNHR1A, GTPase activity of AtNHR1A was assessed using purified protein in a fluorescence-based assay (Willard et al., 2005). […] This finding was quantified by measuring the phosphate (Pi) release, using the ENZchek® phosphate assay kit (Invitrogen®), after incubating NHR1A with different concentrations of JAZ9. […]
GTP binding and hydrolysis by AtNHR1A protein was measured using GTP-BODIPY-FL in real-time fluorescence assays in the presence of absence of JAZ9 protein. […]

Row | binding result [7] | Reduction in phosphate release compared with AtNHR1A without JAZ9 (AtNHR1A [8]; 0.75 μM and 1 μM of JAZ9, NHR1A 1 μM pre-loaded with GTP 1 mM) | Rate of GTP hydrolysis of AtNHR1A (AtNHR1A [8]; in the presence of JAZ9) | Molecule | Stomatal aperture size [1] | AtNHR1A transcripts vs water-treated control (AtNHR1A [2]; Col-0 guard cells) | AtNHR1A transcript level vs water-treated control (AtNHR1A [2]; Col-0 mesophyll cells) | AtNHR1A induction (AtNHR1A [3]) | AtNHR1B transcripts vs water treatment (AtNHR1B [4]) | Stomatal response ([5]; Atnhr1a mutant) | Stomatal response ([5]; Col-0, NHR1A-OE and AtNHR1A-comp lines) | AtNHR1B expression (AtNHR1B [6])
1 |  |  |  | CC1=CC(=O)CC(C)(C)[C@@]1(O)/C=C/C(C)=C\C(=O)O [ABA, abscisic acid] | reduced | only a slight increase | approximately threefold | twofold | decreased | remained open | closed stomata | highly induced
2 | binds | 20% | significantly decreased | Jasmonate-Zim-Domain Protein 9 (JAZ9, At1g70700), full-length (other, Arabidopsis, UniProt Q8W4J8 1-267, looked up, GAL4 domain fusion in yeast two-hybrid, EYFP-half fusion in BiFC/FAST; the construct of the JAZ9 protein added to the GTPase assays is not described) MERDFLGLSDKQYLSNNVKHEVNDDAVEERGLSTKAAREWGKSKVFATSSFMPSSDFQEAKAFPGAYQWGSVSAANVFRRCQFGGAFQNATPLLLGGSVPLPTHPSLVPRVASSGSSPQLTIFYGGTISVFNDISPDKAQAIMLCAGNGLKGETGDSKPVREAERMYGKQIHNTAATSSSSATHTDNFSRCRDTPVAATNAMSMIESFNAAPRNMIPSVPQARKASLARFLEKRKERLMSAMPYKKMLLDLSTGESSGMNYSSTSPT |  |  |  |  |  |  |  | 
